Results as given in patent US20100029654A1, “CARDIOVASCULAR COMPOSITIONS AND USE OF THE SAME FOR THE TREATMENT OF ALZHEIMER'S DISEASE” (MOUNT SINAI SCHOOL OF MEDICINE, priority 2006, published 2010).
Structures can show the parent of a compound that is named as a salt. Where two headings read alike, the source gives them in different places.

How the values were obtained:
[1] = system: primary cortico-hippocampal neuron cultures; experiment: MTT in primary screening
[2] = system: Aβ1-42; experiment: Aβ1-42 content in conditioned medium of primary cortico-hippocampal neuron cultures from Tg2576 mice (ELISA; primary and secondary dose-response screening); assay type: cell-based, mouse; settings: for activity at 100 µM: Mus musculus, Neuron, 24 h, read-out: Ab1-42 (% of ctl); for activity at 100 µM / Ab1-42 (% of ctl): drug 100 μM; for reducing Aβ1-42: <85% of ctl
In short: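 This screen tested cardiovascular drugs for Aβ-lowering in Tg2576 embryonic cortico-hippocampal neuron cultures plated at 1.0×10^5 cells per well in poly-D-lysine-coated 96-well plates with Neurobasal/B27 medium. Drugs at 100 μM were added directly to the medium in duplicate, with 1% DMSO alone as the control. Conditioned medium was then collected, and its Aβ1-42 level was quantified with BioSource ELISA kits.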

[3] = system: primary cortico-hippocampal neuron cultures; experiment: lactate dehydrogenase (LDH) activity assay in parallel neuron cultures; settings: for LDH at E-5M % of change: drug at E-5M
[4] = system: Aβ1-42; experiment: Aβ1-42 content in conditioned medium of primary cortico-hippocampal neuron cultures from Tg2576 mice (ELISA; primary and secondary dose-response screening); assay type: cell-based, mouse; settings: Mus musculus; for EC50: Neuron; for activity at 100 µM: primary screening, drug 100 μM, Tg2576 neuron cultures, table sorted by Aβ1-42, read-out: Ab1-42 (% of ctl)
[5] = system: Aβ1-40; experiment: Aβ1-40 content in conditioned medium of primary cortico-hippocampal neuron cultures from Tg2576 mice (ELISA; primary and secondary dose-response screening); assay type: cell-based, mouse; settings: for activity at 100 µM / EC50: Mus musculus; for activity at 100 µM: 24 h, read-out: Ab1-40 (% of ctl); for activity at 100 µM / Ab1-40 (% of ctl): drug 100 μM; for reduced Aβ1-40: <85% of ctl
In short: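 Primary cortico-hippocampal neurons from embryonic Tg2576 mice were plated at 1.0×10^5 cells per well on poly-D-lysine-coated 96-well plates in Neurobasal with 2% B27, 0.5 mM L-glutamine and 1% penicillin-streptomycin. Cultures received drug in 1% DMSO, and Aβ1-40 in the conditioned medium was measured by BioSource ELISA 24 hours after treatment, relative to vehicle controls.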

[6] = Primary Screening, table sorted by Aβ1-40
[7] = primary screening, table sorted by Aβ1-42
[8] = primary screening, Tg2576 neuron cultures, table sorted by Aβ1-42
[9] = 24 h, secondary dose-response screening 0.01-100 μM, 24 hours, read-out: EC50 (molar) Aβ1-42
[10] = Neuron, Primary Screening, table sorted by Aβ1-40
[11] = Neuron, primary screening, Tg2576 neuron cultures, table sorted by Aβ1-42
[12] = Neuron, secondary dose-response screening 0.01-100 μM, 24 hours, read-out: EC50 (molar) Aβ1-40

Compound | MTT (% of ctl) [1, 6] | MTT (% of ctl) [1, 7] | activity at 100 µM [2, 6] [%] | activity at 100 µM [2, 8] [%] | reducing Aβ1-42 ([2]; primary screening) | LDH (% of ctl) [3, 6] | LDH (% of ctl) [3, 7] | activity at 100 µM [5, 10] [%] | activity at 100 µM [5, 11] [%] | reduced Aβ1-40 ([5]; primary screening) | Ab1-42 (% of ctl) [2, 6] | activity at 100 µM ([4]; 24 h) [%] | activity at 100 µM [5, 8] [%] | Ab1-40 (% of ctl) [5, 6] | other results
COc1ccccc1OCCNCC(O)COc1cccc2[nH]c3ccccc3c12 (stereo not drawn) [Carvedilol] | 66.7 % of ctl | 66.7 % of ctl | 30.8 | 30.8 | useful in reducing Aβ1-42 | 148.6 % of ctl | 148.6 % of ctl | 38.3 | 38.3 | reduced Aβ1-40 |  |  |  |  | LDH (at 5F-5 M) ([3]; Table IV): no change; EC50 ([4]; 24 h, conditioned medium of primary cortico-hippocampal neuron cultures from Tg2576 embryos, 24 hours after treatment, relative to vehicle (1% DMSO) control, read-out: EC50 (molar) Aβ1-42): 0.000132 M; EC50 [4, 9]: 0.000132 M; EC50 ([4]; Table IV, dose-response 0.01-100 μM, read-out: EC50 (M): Ab-lowering activity): 0.000132 M; EC50 ([5]; Neuron, Table IV, dose-response 0.01-100 μM, read-out: EC50 (M): Ab-lowering activity Abeta1-40): 6.61e-05 M; EC50 [5, 12]: 6.61e-05 M
CCN1C[C@]2(C)CC[C@H](OC)[C@@]34C1[C@]1(OCO[C@@]15C[C@H](OC)[C@H]1C[C@]3(O)[C@@H]5[C@H]1OC)[C@@H](OC(C)=O)[C@H]24 [Deltaline] | 99.4 % of ctl | 99.4 % of ctl |  |  |  | 118.9 % of ctl | 118.9 % of ctl |  |  |  | 143.0 % of ctl | 143 | 121 | 121.0 % of ctl | 
COc1ccc(CCN(C)CCCC(C#N)(c2ccc(OC)c(OC)c2)C(C)C)cc1OC (stereo not drawn) [Verapamil] |  |  |  |  |  | 92.5 % of ctl | 92.5 % of ctl |  |  | reduced Aβ1-40 | 101.1 % of ctl | 101 | 70.9 | 70.9 % of ctl | 
COc1cc2c3cc1Oc1c(OC)c(OC)cc4c1[C@@H](Cc1cccc(c1)Oc1ccc(c(O)c1)C[C@@H]3N(C)CC2)N(C)CC4 [Berbamine Hydrochloride] | 97.6 % of ctl | 97.6 % of ctl |  |  |  | 129.1 % of ctl | 129.1 % of ctl |  |  |  | 150.6 % of ctl | 151 | 119 | 119.1 % of ctl | 
CC(COc1ccccc1)N(CCCl)Cc1ccccc1 (stereo not drawn) [Phenoxybenzamine Hydrochloride] | 72.8 % of ctl | 72.8 % of ctl |  |  |  | 81.3 % of ctl | 81.3 % of ctl |  |  |  | 90.7 % of ctl | 90.7 | 87.5 | 87.5 % of ctl | 
NCCc1cc(O)c(O)cc1O [Oxidopamine Hydrochloride] | 121.5 % of ctl | 121.5 % of ctl |  |  | useful in reducing Aβ1-42 | 103.6 % of ctl | 103.6 % of ctl |  |  | reduced Aβ1-40 | 36.4 % of ctl | 36.4 | 43.8 | 43.8 % of ctl | 
NCCCCCC(=O)O [Aminocaproic Acid] | 80.3 % of ctl | 80.3 % of ctl |  |  |  | 90.4 % of ctl | 90.4 % of ctl |  |  |  | 184.3 % of ctl | 184 | 124 | 124.4 % of ctl | 
Cc1ccc(N(CC2=NCCN2)c2cccc(O)c2)cc1 [Phentolamine Hydrochloride] | 110.3 % of ctl | 110.3 % of ctl | 72.9 | 72.9 | useful in reducing Aβ1-42 | 90.7 % of ctl | 90.7 % of ctl | 83.4 | 83.4 | reduced Aβ1-40 |  |  |  |  | LDH at E-5M % of change [3]: −3.4%; EC50 [4, 9]: 8.65e-08 M; EC50 [5, 12]: 1.21e-05 M
COC(=O)[C@H]1[C@H]2C[C@@H]3c4[nH]c5cc(OC)ccc5c4CCN3C[C@H]2C[C@@H](OC(=O)c2cc(OC)c(OC)c(OC)c2)[C@@H]1OC [Reserpine] | 87.2 % of ctl | 87.2 % of ctl | 38.7 | 38.7 | useful in reducing Aβ1-42 | 157.8 % of ctl | 157.8 % of ctl | 24.7 | 24.7 | reduced Aβ1-40 |  |  |  |  | LDH at E-5M % of change [3]: −3.4%; EC50 [4, 9]: 0.000902 M; EC50 [5, 12]: 5.66e-05 M
OCCN(CCO)c1nc(N2CCCCC2)c2nc(N(CCO)CCO)nc(N3CCCCC3)c2n1 [Dipyridamole] | 102.7 % of ctl | 102.7 % of ctl | 62.6 | 62.6 | useful in reducing Aβ1-42 | 107.5 % of ctl | 107.5 % of ctl | 72.2 | 72.2 | reduced Aβ1-40 |  |  |  |  | LDH at E-5M % of change [3]: 6.4%; EC50 [4, 9]: 1.24e-06 M; EC50 [5, 12]: 1.66e-05 M
COC(=O)[C@H]1[C@H]2C[C@H]3c4[nH]c5ccccc5c4CCN3C[C@H]2CC[C@@H]1O [Rauwolscine Hydrochloride] | 98.0 % of ctl | 98.0 % of ctl | 74.3 | 74.3 | useful in reducing Aβ1-42 | 109.4 % of ctl | 109.4 % of ctl | 103 | 103 |  |  |  |  |  | 
O=C(O)c1cccnc1 [Niacin] | 61.0 % of ctl | 61.0 % of ctl | 95 | 95 |  | 134.5 % of ctl | 134.5 % of ctl | 101 | 101 |  |  |  |  |  | 
Cc1cccc(C)c1OCC(C)N (stereo not drawn) [Mexiletine Hydrochloride] | 95.6 % of ctl | 95.6 % of ctl | 115 | 115 |  | 103.4 % of ctl | 103.4 % of ctl | 91.3 | 91.3 |  |  |  |  |  | 
CC(CCc1ccc(O)cc1)NCCc1ccc(O)c(O)c1 (stereo not drawn) [Dobutamine Hydrochloride] | 99.5 % of ctl | 99.5 % of ctl | 103 | 103 |  | 103.1 % of ctl | 103.1 % of ctl | 90.1 | 90.1 |  |  |  |  |  | 
NS(=O)(=O)c1cc2c(cc1Cl)N=C(CSCc1ccccc1)NS2(=O)=O [Benzthiazide] | 98.5 % of ctl | 98.5 % of ctl | 98.9 | 98.9 |  | 105.1 % of ctl | 105.1 % of ctl | 106 | 106 |  |  |  |  |  | 
CC[C@H]1CN2CC[C@H]1C[C@@H]2[C@@H](O)c1ccnc2ccc(OC)cc12 [Hydroquinidine] | 103.6 % of ctl | 103.6 % of ctl | 121 | 121 |  | 102.2 % of ctl | 102.2 % of ctl | 96.5 | 96.5 |  |  |  |  |  | 
COc1ccc(C2C(=O)c3ccccc3C2=O)cc1 [Anisindione] | 110.7 % of ctl | 110.7 % of ctl | 103 | 103 |  | 148.9 % of ctl | 148.9 % of ctl | 90.1 | 90.1 |  |  |  |  |  | 
NC[C@H]1CC[C@H](C(=O)O)CC1 [Tranexamic Acid] | 96.8 % of ctl | 96.8 % of ctl | 53.9 | 53.9 | useful in reducing Aβ1-42 | 112.8 % of ctl | 112.8 % of ctl | 84.9 | 84.9 | reduced Aβ1-40 |  |  |  |  | 
